Measurements: PubChem BioAssay AID1845198 (Molecular Pharmacology Branch, DTP, NCI, 2023)

System: 425362-245-T-J1 tumor spheroids, viability % test/control
Assay: Anticancer human tumor 425362-245-T-J1 patient-derived melanoma cell line growth inhibition
Conditions: spheroids with HUVEC and MSC; for IC50: curve of first compound; for viability, T/C: stronger effect = lower value
Procedure, shortened: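 Complex tumor spheroids combined malignant cells with endothelial cells and mesenchymal stem cells. DNA-damaging drugs and DNA repair inhibitors were tested alone and in combination, at half-log dilutions down from clinical Cmax (top 10 microM if Cmax unknown), 0.25% DMSO final.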

[1] = second compound 0.003 µM, first compound 0.0316 µM
[2] = second compound 0.003 µM, first compound 0.1 µM
[3] = second compound 0.003 µM, first compound 0.316 µM
[4] = second compound 0.003 µM, first compound 1 µM
[5] = second compound 0.003 µM, first compound 3.16 µM
[6] = second compound 0.003 µM, first compound 10 µM
[7] = second compound 0.00949 µM, first compound 0.0316 µM
[8] = second compound 0.00949 µM, first compound 0.1 µM
[9] = second compound 0.00949 µM, first compound 0.316 µM
[10] = second compound 0.00949 µM, first compound 1 µM
[11] = second compound 0.00949 µM, first compound 3.16 µM
[12] = second compound 0.00949 µM, first compound 10 µM
[13] = second compound 0.03 µM, first compound 0.0316 µM
[14] = second compound 0.03 µM, first compound 0.1 µM
[15] = second compound 0.03 µM, first compound 0.316 µM
[16] = second compound 0.03 µM, first compound 1 µM
[17] = second compound 0.03 µM, first compound 3.16 µM
[18] = second compound 0.03 µM, first compound 10 µM
[19] = second compound 0.0949 µM, first compound 0.0316 µM
[20] = second compound 0.0949 µM, first compound 0.1 µM
[21] = second compound 0.0949 µM, first compound 0.316 µM
[22] = second compound 0.0949 µM, first compound 1 µM
[23] = second compound 0.0949 µM, first compound 3.16 µM
[24] = second compound 0.0949 µM, first compound 10 µM
[25] = second compound 0.3 µM, first compound 0.0316 µM
[26] = second compound 0.3 µM, first compound 0.1 µM
[27] = second compound 0.3 µM, first compound 0.316 µM
[28] = second compound 0.3 µM, first compound 1 µM
[29] = second compound 0.3 µM, first compound 3.16 µM
[30] = second compound 0.3 µM, first compound 10 µM
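Also: spheroids exposed to agents for 7 days.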
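For viability, T/C in this document: 100% = DMSO vehicle control viability.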

SMILES | IC50 (second compound 0.003 µM) | IC50 (second compound 0.00949 µM) | IC50 (second compound 0.03 µM) | IC50 (second compound 0.0949 µM) | IC50 (second compound 0.3 µM) | viability, T/C [1] | viability, T/C [2] | viability, T/C [3] | viability, T/C [4] | viability, T/C [5] | viability, T/C [6] | viability, T/C [7] | viability, T/C [8] | viability, T/C [9] | viability, T/C [10] | viability, T/C [11] | viability, T/C [12] | viability, T/C [13] | viability, T/C [14] | viability, T/C [15] | further results
CC(C)n1c(=O)n(C)c2cnc3cc(F)c(-c4ccc(OCCCN5CCCCC5)nc4)cc3c21 + CC[C@@]1(O)C(=O)OCc2c1cc1n(c2=O)Cc2cc3c(CN(C)C)c(O)ccc3nc2-1 | < 31.6 nM | < 31.6 nM | < 31.6 nM | < 31.6 nM | < 31.6 nM | 14.6% | 10.4% | 7.7% | 6.29% | 8.79% | 4.08% | 6.58% | 4.04% | 3.89% | 3.22% | 3.36% | 2.89% | 5.67% | 4.26% | 4.37% | viability, T/C [16]: 4.1%; viability, T/C [17]: 5.65%; viability, T/C [18]: 2.47%; viability, T/C [19]: 7.71%; viability, T/C [20]: 4.71%; viability, T/C [21]: 4.3%; viability, T/C [22]: 3.67%; viability, T/C [23]: 6.89%; viability, T/C [24]: 2.28%; viability, T/C [25]: 2.08%; viability, T/C [26]: 2.15%; viability, T/C [27]: 1.84%; viability, T/C [28]: 1.73%; viability, T/C [29]: 1.54%; viability, T/C [30]: 1.56%
CC1COCCN1c1cc(-c2ccnn2C)c2ccnc(-c3ccn[nH]3)c2n1 (stereo not given) + CC[C@@]1(O)C(=O)OCc2c1cc1n(c2=O)Cc2cc3c(CN(C)C)c(O)ccc3nc2-1 | < 31.6 nM | < 31.6 nM | < 31.6 nM | < 31.6 nM | < 31.6 nM | 37.4% | 15.3% | 6.14% | 6.78% | 6.36% | 6.21% | 14.2% | 6.19% | 4.31% | 5.51% | 5.57% | 5.81% | 4.2% | 2.9% | 3.2% | viability, T/C [16]: 4.33%; viability, T/C [17]: 5.76%; viability, T/C [18]: 6.29%; viability, T/C [19]: 2.84%; viability, T/C [20]: 1.97%; viability, T/C [21]: 2.32%; viability, T/C [22]: 4.06%; viability, T/C [23]: 4.81%; viability, T/C [24]: 4.72%; viability, T/C [25]: 1.36%; viability, T/C [26]: 1.31%; viability, T/C [27]: 1.46%; viability, T/C [28]: 1.77%; viability, T/C [29]: 2.51%; viability, T/C [30]: 3.29%
COc1cc(C)[nH]c(=O)c1CN1CCc2c(Cl)cc(C(OC)C3COC3)c(Cl)c2C1=O (stereo not given) + CC[C@@]1(O)C(=O)OCc2c1cc1n(c2=O)Cc2cc3c(CN(C)C)c(O)ccc3nc2-1 | > 10000 nM | > 10000 nM | < 31.6 nM | < 31.6 nM | < 31.6 nM | 98.7% | 102% | 100% | 94.3% | 78.6% | 79.5% | 91% | 89.6% | 85.6% | 80.6% | 75.8% | 59.5% | 53.7% | 37.2% | 46.5% | viability, T/C [16]: 47.5%; viability, T/C [17]: 29.9%; viability, T/C [18]: 21.6%; viability, T/C [19]: 7.06%; viability, T/C [20]: 7.25%; viability, T/C [21]: 6.93%; viability, T/C [22]: 7.04%; viability, T/C [23]: 5.23%; viability, T/C [24]: 3.44%; viability, T/C [25]: 1.81%; viability, T/C [26]: 2.03%; viability, T/C [27]: 1.77%; viability, T/C [28]: 1.79%; viability, T/C [29]: 1.76%; viability, T/C [30]: 1.76%
COc1ccc([C@@H](O)c2cc(-c3ncnc4cc(N5CCOCC5)ccc34)c(F)cc2Cl)nn1 + CC[C@@]1(O)C(=O)OCc2c1cc1n(c2=O)Cc2cc3c(CN(C)C)c(O)ccc3nc2-1 | 1690 nM | 1110 nM | < 31.6 nM | < 31.6 nM | < 31.6 nM | 103% | 103% | 72.1% | 60.2% | 40.6% | 17% | 89.7% | 78.7% | 72.4% | 47.9% | 35.1% | 14.9% | 45.5% | 45.6% | 37.8% | viability, T/C [16]: 24.5%; viability, T/C [17]: 15.1%; viability, T/C [18]: 11.2%; viability, T/C [19]: 8.69%; viability, T/C [20]: 6.08%; viability, T/C [21]: 5.64%; viability, T/C [22]: 5.51%; viability, T/C [23]: 3.85%; viability, T/C [24]: 4.39%; viability, T/C [25]: 1.88%; viability, T/C [26]: 1.38%; viability, T/C [27]: 1.37%; viability, T/C [28]: 1.12%; viability, T/C [29]: 0.65%; viability, T/C [30]: 0.57%
[2H]c1nc(C)nc([2H])c1-c1cc(NC[C@@H](C)c2cccc3c(C(=O)NC)ccnc23)ncn1 + CC[C@@]1(O)C(=O)OCc2c1cc1n(c2=O)Cc2cc3c(CN(C)C)c(O)ccc3nc2-1 | 3450 nM | 3590 nM | < 31.6 nM | < 31.6 nM | < 31.6 nM | 93.9% | 83.5% | 76.7% | 74.5% | 47.7% | 31.4% | 76.2% | 60.4% | 72.9% | 63.8% | 53% | 25.5% | 39.5% | 32.2% | 36.2% | viability, T/C [16]: 28.3%; viability, T/C [17]: 20.5%; viability, T/C [18]: 9.7%; viability, T/C [19]: 6.85%; viability, T/C [20]: 5.79%; viability, T/C [21]: 4.9%; viability, T/C [22]: 6.11%; viability, T/C [23]: 2.84%; viability, T/C [24]: 3.55%; viability, T/C [25]: 1.6%; viability, T/C [26]: 1.7%; viability, T/C [27]: 1.43%; viability, T/C [28]: 1.44%; viability, T/C [29]: 1.47%; viability, T/C [30]: 1.38%
